We go through one cell line from the supplement of paper PMC10307832.

Holding throughout (test): relative viability (nuclei count vs DMSO), 5 days (fraction); higher = more cells survive
Compound in the experiment “RAF265 + Navitoclax”: Cn1c(Nc2ccc(C(F)(F)F)cc2)nc2cc(Oc3ccnc(-c4ncc(C(F)(F)F)[nH]4)c3)ccc21 [RAF265] + CC1(C)CCC(c2ccc(Cl)cc2)=C(CN2CCN(c3ccc(C(=O)NS(=O)(=O)c4ccc(N[C@H](CCN5CCOCC5)CSc5ccccc5)c(S(=O)(=O)C(F)(F)F)c4)cc3)CC2)C1 [Navitoclax] (partner 0.5 µM)
The method, boiled down: (§1)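 The day after seeding in 1536-well plates, lung cancer cell lines were treated by pin tool with a single drug, or with a fixed anchor-drug dose together with five library-drug doses (not always all listed) in √10 steps. After 5 days, a combined fix-and-stain solution (final 0.05% Triton X-100, 1% formaldehyde, 1 ug/ml Hoechst) was added. Nuclei counted on 4× images gave relative viability as treated counts over vehicle counts, reported as the median of duplicate plates.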

Compound in the experiment “RAF265 + Vorinostat”: Cn1c(Nc2ccc(C(F)(F)F)cc2)nc2cc(Oc3ccnc(-c4ncc(C(F)(F)F)[nH]4)c3)ccc21 [RAF265] + O=C(CCCCCCC(=O)Nc1ccccc1)NO [Vorinostat] (partner 1 µM)
The gist of the method:
as §1

Compound in the experiment “IPA-3 + Linsitinib”: C1=CC=C2C(=C1)C=CC(=C2SSC3=C(C=CC4=CC=CC=C43)O)O [IPA-3] + C[C@]1(O)C[C@@H](c2nc(-c3ccc4ccc(-c5ccccc5)nc4c3)c3c(N)nccn32)C1 [Linsitinib] (partner 1 µM)
The gist of the method:
as §1

Compound in the experiment “Doramapimod + Trametinib”: Cc1ccc(-n2nc(C(C)(C)C)cc2NC(=O)Nc2ccc(OCCN3CCOCC3)c3ccccc23)cc1 [Doramapimod] + CC(=O)Nc1cccc(-n2c(=O)n(C3CC3)c(=O)c3c(Nc4ccc(I)cc4F)n(C)c(=O)c(C)c32)c1 [Trametinib] (partner 0.02 µM)
The method, boiled down:
as §1

Consider UMC-11, for which the relative viability with RAF265 + Navitoclax (first compound 0.01 µM) was found to be 0.316; with RAF265 + Navitoclax (first compound 0.03162 µM), 0.326; with RAF265 + Navitoclax (first compound 0.1 µM), 0.299; in the experiment with RAF265 + Navitoclax (first compound 0.3162 µM) it was 0.322; in the experiment with RAF265 + Navitoclax (first compound 1 µM), 0.327; in the experiment with RAF265 + Vorinostat (first compound 0.01 µM), 0.458. The relative viability came to 0.4 with RAF265 + Vorinostat (first compound 0.03162 µM); 0.343 with RAF265 + Vorinostat (first compound 0.1 µM); 0.357 with RAF265 + Vorinostat (first compound 0.3162 µM); 0.32 in the experiment with RAF265 + Vorinostat (first compound 1 µM); 1.28 in the experiment with IPA-3 + Linsitinib (first compound 0.2 µM); 0.923 with IPA-3 + Linsitinib (first compound 0.6325 µM). In addition, the relative viability with IPA-3 + Linsitinib (first compound 2 µM) came to 1.07; with IPA-3 + Linsitinib (first compound 6.325 µM) it was 1.04; with IPA-3 + Linsitinib (first compound 20 µM), 1.24; with Doramapimod + Trametinib (first compound 0.02 µM), 0.689; in the experiment with Doramapimod + Trametinib (first compound 0.06325 µM) it was 0.638; in the experiment with Doramapimod + Trametinib (first compound 0.2 µM), 0.621. For the same cell line, the figures for the relative viability with Doramapimod + Trametinib (first compound 0.6325 µM) and with Doramapimod + Trametinib (first compound 2 µM) were 0.463 and 0.539, respectively.
